# Measured values taken from PMC12799421, “Inhibition of constitutive activity of the atypical chemokine receptor 3 by the small-molecule inverse agonist VUF16840” (Molecular Pharmacology, 2025).
# Legend:
# hCXCR4-NLuc = target: T1, hCXCR4-NLuc (Homo sapiens, UniProt P61073); test: Bystander BRET detection of CXCR4 membrane localization; type: cell-based; details: 1 μM VUF16840
# T1 construct: expressed in transfected cells; host or cells: HEK293T
# Description: Ligand-induced receptor mobilization to the plasma membrane was monitored by bystander NanoBRET according to an established method.[36] For this assay, 5 × 10^6 HEK293T cells were seeded in 10-cm dishes and cotransfected with plasmids encoding ACKR3 C-terminally tagged with NLuc and mNeonGreen N-terminally tagged with the plasma membrane targeting sequence corresponding to the first 11 residues ([…]) of the human Lyn-kinase.[37] Twenty-four hours after transfection, cells were distributed into black 96-well plates (1 × 10^5 cells per well) and treated with chemokines (100 nM). After 45-minute incubation at 37 °C, coelenterazine H (10 μM) was added and donor emission (460 nm) and acceptor emission (535 nm) were immediately measured on a GloMax Discover (Promega) plate reader.
# The resulting proximity between hACKR3-NLuc and was determined as bystander BRET. […] (B) The same assay was performed as in A for hCXCR4-NLuc. […] Expression of hACKR3-NLuc at the cell surface was determined by the measurement of bystander BRET. Depicted data represents the mean ± SD of 3 experiments with triplicate measurements per experiment.
# D3-ACKR3+ cells = test: CXCL12 uptake in ACKR3-overexpressing hCMEC/D3 cells; type: cell-based, human
# Description: Human CMEC (D3) cells (CVCL_U985) stably overexpressing ACKR3 and empty vector control were generated by retroviral transductions. The lentiviral expression vector encoding the human ACKR3 was created by cloning the ACKR3 gene (NM_020311.3 from GenScript) in the restriction sites Nhe1/Sma1 of the pLV-LifeAct (a kind gift of Dr Niels Heemskerk). Lentiviral particles were packaged in HEK293T cells, cultured in Dulbecco’s modified Eagle’s medium containing 10% fetal calf serum, 1% penicillin/streptomycin (ThermoFisher Scientific) at 37 °C in a 5% CO2 incubator. Lentiviral expression and packaging vectors were introduced using calcium phosphate transfection. […] Supernatant was taken off, cells were washed 1× with medium and CXCL12-A647 signal in cells was measured using a BioTek Cytation microplate reader (Agilent). […]
# The sigmoidal concentration-dependent displacement of binding of the probes [^3H]VUF15485 and CXCL12-A647 by unlabeled ligands were analyzed using GraphPad Prism 8, by fitting a one-site binding model to the data, to determine the pIC50. Mean pIC50 values were determined by averaging fitted values from individual experiments. […] Mean pEC50 values and pIC50 values were determined by averaging fitted values from individual experiments. […]
# T1 sequence (P61073 whole entry): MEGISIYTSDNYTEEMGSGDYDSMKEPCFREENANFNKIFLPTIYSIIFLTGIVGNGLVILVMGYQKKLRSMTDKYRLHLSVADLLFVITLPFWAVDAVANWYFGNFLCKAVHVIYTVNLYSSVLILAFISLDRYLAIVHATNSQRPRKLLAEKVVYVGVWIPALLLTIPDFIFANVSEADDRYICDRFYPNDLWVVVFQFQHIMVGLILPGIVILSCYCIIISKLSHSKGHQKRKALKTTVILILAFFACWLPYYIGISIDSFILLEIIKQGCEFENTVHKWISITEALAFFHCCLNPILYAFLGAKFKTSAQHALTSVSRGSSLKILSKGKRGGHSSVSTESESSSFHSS
smiles,measurement,setting,value
COc1ccccc1CCNC(=O)C1CN(C2CCCCC2)CCC1NC(=O)c1cc(-c2ccc(F)cc2F)on1 (stereo not drawn) [VUF16840],effect on CXCR4 surface expression (bystander BRET),hCXCR4-NLuc,not affected
same,CXCL12-AF647 uptake (mean fluorescent intensity),"D3-ACKR3+ cells; 3 nM CXCL12-AF647 60 minutes, 1, 10 or 100 nM VUF16840",concentration-dependent inhibition
same,uptake of CXCL12-AF647 (confocal microscopy),"D3-ACKR3+ cells; 3 nM CXCL12-AF647, 100 nM VUF16840",abolished
